Experimental data as given in patent US9346761B2, “Arginine methyltransferase inhibitors and uses thereof” (Epizyme, Inc., priority 2013, dated 2016).

What was measured:
[1] = biological target: T1, Full-length human PRMT1 isoform 1 (Homo sapiens, UniProt Q99873); assay: PRMT1 biochemical assay (3H-SAM Flashplate, peptide substrate)
T1 construct: GST-tagged PRMT1; made in house; host or cells: High Five insect cells (baculovirus, pFastBacI)
Summary of the method: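 Tritiated methyl transfer from 3H-SAM onto biotinylated peptide, captured on streptavidin Flashplates and counted. Baculovirus-expressed GST-PRMT1 and compound were preincubated 30 min at room temperature in Bicine buffer pH 7.6. Cold SAM at 300 uM final ended the reaction.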

[2] = biological target: T2, Full-length human PRMT3 (Homo sapiens, UniProt O60678); assay: PRMT3 biochemical assay (3H-SAM Flashplate, peptide substrate)
T2 construct: GST-tagged PRMT3; made in house; host or cells: E. coli BL21(DE3) Gold (pGEX-KG)
T2 sequence (O60678 with tags, fused parts or gaps): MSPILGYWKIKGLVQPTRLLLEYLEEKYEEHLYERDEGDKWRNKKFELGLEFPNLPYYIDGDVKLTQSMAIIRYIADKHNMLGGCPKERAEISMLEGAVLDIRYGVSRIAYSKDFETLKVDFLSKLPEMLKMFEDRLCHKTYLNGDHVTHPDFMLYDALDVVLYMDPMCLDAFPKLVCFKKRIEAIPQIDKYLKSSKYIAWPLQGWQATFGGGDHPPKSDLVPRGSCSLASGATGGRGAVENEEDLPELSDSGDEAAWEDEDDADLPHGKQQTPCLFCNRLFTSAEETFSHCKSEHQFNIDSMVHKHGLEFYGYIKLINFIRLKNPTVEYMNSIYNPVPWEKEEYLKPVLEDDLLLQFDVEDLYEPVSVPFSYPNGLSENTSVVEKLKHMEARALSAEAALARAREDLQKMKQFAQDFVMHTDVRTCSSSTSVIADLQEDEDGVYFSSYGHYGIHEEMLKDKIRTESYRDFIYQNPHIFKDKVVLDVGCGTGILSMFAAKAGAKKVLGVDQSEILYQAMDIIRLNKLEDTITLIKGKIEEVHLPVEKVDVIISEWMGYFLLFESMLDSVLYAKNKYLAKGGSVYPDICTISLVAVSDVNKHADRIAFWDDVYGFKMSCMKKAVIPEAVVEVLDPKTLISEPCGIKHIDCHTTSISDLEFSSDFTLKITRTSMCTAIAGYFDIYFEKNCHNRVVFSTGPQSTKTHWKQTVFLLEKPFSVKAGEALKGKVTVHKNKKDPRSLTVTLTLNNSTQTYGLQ
Summary of the method: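 Methylation of a biotinylated peptide (330 nM) by 0.5 nM GST-PRMT3 using 3H-SAM 100 nM with unlabelled SAM 1.8 uM, 20 mM Bicine pH 7.6, 2% DMSO, after 30 min enzyme–compound preincubation. Scintillation counts on streptavidin Flashplates normalised to 1 mM SAH and DMSO controls; curve fits with floating or fixed Hill slope.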

T1 sequence (Q99873 with tags, fused parts or gaps): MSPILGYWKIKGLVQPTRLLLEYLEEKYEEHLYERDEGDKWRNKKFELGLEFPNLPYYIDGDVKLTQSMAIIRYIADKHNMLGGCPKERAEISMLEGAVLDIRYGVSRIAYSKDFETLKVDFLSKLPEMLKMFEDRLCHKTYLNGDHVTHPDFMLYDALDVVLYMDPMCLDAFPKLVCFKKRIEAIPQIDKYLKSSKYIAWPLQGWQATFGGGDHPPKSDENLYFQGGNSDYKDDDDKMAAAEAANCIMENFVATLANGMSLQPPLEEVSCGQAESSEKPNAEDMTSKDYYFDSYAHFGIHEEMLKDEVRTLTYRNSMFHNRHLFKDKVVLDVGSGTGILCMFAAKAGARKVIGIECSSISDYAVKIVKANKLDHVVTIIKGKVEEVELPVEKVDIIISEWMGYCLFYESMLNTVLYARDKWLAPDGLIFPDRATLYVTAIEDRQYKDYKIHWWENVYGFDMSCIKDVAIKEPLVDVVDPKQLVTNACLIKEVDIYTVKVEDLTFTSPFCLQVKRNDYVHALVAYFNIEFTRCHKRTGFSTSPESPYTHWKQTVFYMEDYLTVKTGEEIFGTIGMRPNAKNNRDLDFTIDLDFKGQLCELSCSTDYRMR

Row | Compound | IC50 [1] [µM] | IC50 [2] [µM]
1 | COCCn1cc(CN(C)CCN(C)C)c(-c2ccc(F)cc2)n1 [Compound 61] | > 10 | > 10
2 | CC(C)Oc1ccc(-c2n[nH]cc2CN(C)CCN)cc1Cl [Compound 168] | – | 3.01 to 10
3 | CNCCN(C)Cc1c[nH]nc1-c1ccc(OC)c(F)c1 [Compound 52] | < 0.1 | 3.01 to 10
4 | CN(CCN)Cc1c[nH]nc1-c1ccc(F)cc1Cl [Compound 89] | < 0.1 | 3.01 to 10
5 | CNCCN(C)Cc1c[nH]nc1-c1ccccc1NS(C)(=O)=O [Compound 41] | – | > 10
6 | CN(CCN)Cc1cnn(CCO)c1-c1ccc(F)cc1 [Compound 65] | 1.01 to 3 | > 10
7 | CNCCN(C)Cc1cn(CCC(O)CO)nc1-c1ccc(F)cc1 (stereo not drawn) [Compound 59] | 3.01 to 10 | > 10
8 | CCN(CCN)Cc1c[nH]nc1-c1ccc(F)cc1 [Compound 62] | < 0.1 | 3.01 to 10
9 | CNCCN(C)Cc1c[nH]nc1-c1cccc(NC(C)=O)c1 [Compound 42] | – | 1.01 to 3
10 | CN(CCN)Cc1c[nH]nc1-c1ccc(C(F)(F)F)cc1C(F)(F)F [Compound 85] | 0.101 to 1 | > 10
11 | CNCCN(C)Cc1c[nH]nc1-c1cccc2ccccc12 [Compound 57] | < 0.1 | 3.01 to 10
12 | CN(CCN)Cc1c[nH]nc1-c1cccc(F)c1 [Compound 71] | < 0.1 | > 10
13 | CNCCN(C)Cc1c[nH]nc1-c1ccc2ccccc2c1 [Compound 58] | < 0.1 | 3.01 to 10
14 | CN(CCN)Cc1cn(CCO)nc1-c1ccc(F)cc1 [Compound 66] | 1.01 to 3 | > 10
15 | CN(CCN)Cc1cnn(CC2COC2)c1-c1ccc(F)cc1 [Compound 80] | > 10 | > 10
16 | COCCn1ncc(CN(C)CCN(C)C)c1-c1ccc(F)cc1 [Compound 64] | > 10 | > 10
17 | CNCCN(C)Cc1c[nH]nc1-c1ccccc1Oc1ccccc1 [Compound 36] | – | > 10
18 | CN(CCN)Cc1c[nH]nc1-c1ccc(Cl)cc1Cl [Compound 86] | < 0.1 | 3.01 to 10
19 | CN(CCN)Cc1cnn(C)c1-c1ccc(F)cc1 [Compound 4] | 0.101 to 1 | > 10
20 | CN(CCN)Cc1cn(CC(O)CO)nc1-c1ccc(F)cc1 (stereo not drawn) [Compound 76] | 3.01 to 10 | > 10
21 | CN(CCN)Cc1c[nH]nc1-c1ccccc1 [Compound 73] | 0.101 to 1 | > 10
22 | CN(CCN)Cc1nn(C)cc1-c1ccc(C#N)cc1 [Compound 83] | < 0.1 | > 10
23 | NCCN(Cc1c[nH]nc1-c1ccc(F)cc1)C1CC1 [Compound 78] | 0.101 to 1 | > 10

Row | Compound | IC50 [1] [µM] | IC50 [2] [µM]
24 | CNCCN(C)Cc1c[nH]nc1-c1cc(Cl)ccc1OC [Compound 53] | 3.01 to 10 | > 10
25 | CNCCN(C)Cc1c[nH]nc1-c1ccc(F)cc1F [Compound 49] | 0.101 to 1 | 3.01 to 10
26 | CN(CCN)Cc1c[nH]nc1-c1ccc(C#N)cc1 [Compound 68] | < 0.1 | 3.01 to 10
27 | Cc1ccc(Cl)c(-c2n[nH]cc2CN(C)CCN)c1 [Compound 91] | 0.101 to 1 | > 10
28 | CNCCN(C)Cc1c[nH]nc1-c1cccc(OC)c1OC [Compound 54] | 0.101 to 1 | > 10
29 | CCNCCN(C)Cc1c[nH]nc1-c1ccc(F)cc1 [Compound 60] | 0.101 to 1 | > 10
30 | CCN(CCNC)Cc1c[nH]nc1-c1ccc(F)cc1 [Compound 9] | – | 3.01 to 10
31 | CNCCN(C)Cc1cnn(CC2CCOCC2)c1-c1ccc(F)cc1 [Compound 12] | – | > 10
32 | CN(CCN)Cc1c[nH]nc1-c1ccccc1F [Compound 72] | 0.101 to 1 | > 10
33 | CNCCN(C)Cc1c[nH]nc1-c1ccc(-c2ccccc2)cc1 [Compound 47] | – | 0.101 to 1
34 | CNCCN(C)Cc1c[nH]nc1-c1c(OC)cccc1OC [Compound 56] | 3.01 to 10 | > 10
35 | CNCCN(C)Cc1cnn(C)c1-c1ccc(F)cc1 [Compound 10] | – | > 10
36 | CN(CCN)Cc1n[nH]cc1-c1ccc(F)cc1 [Compound 69] | < 0.1 | > 10
37 | CNCCN(C)Cc1c[nH]nc1-c1ccccc1O [Compound 35] | – | > 10
38 | CN(CCN)Cc1cnn(C2COC2)c1-c1ccc(F)cc1 [Compound 81] | 0.101 to 1 | > 10
39 | CN(CCN)Cc1c[nH]nc1-c1ccc(C(C)(C)C)cc1 [Compound 74] | < 0.1 | > 10
40 | CNCCN(C)Cc1c[nH]nc1-c1ccc(OC)cc1OC [Compound 55] | 0.101 to 1 | > 10
41 | CNCCN(C)Cc1c[nH]nc1-c1cccc(C(C)=O)c1 [Compound 44] | – | 3.01 to 10
42 | CN(CCN)Cc1c(-c2ccc(C#N)cc2)cnn1C [Compound 84] | > 10 | > 10
43 | CN(CCN)Cc1cn(CC2COC2)nc1-c1ccc(F)cc1 [Compound 79] | > 10 | > 10
44 | CNCCN(C)Cc1c[nH]nc1-c1ccccc1F [Compound 48] | – | > 10
45 | CN(CCN)Cc1cn(C2COC2)nc1-c1ccc(F)cc1 [Compound 77] | 0.101 to 1 | 3.01 to 10
46 | CN(CCN)Cc1cn(C)nc1-c1ccc(F)cc1 [Compound 3] | < 0.1 | > 10

Row | Compound | IC50 [1] [µM] | IC50 [2] [µM]
47 | CNCCN(C)Cc1cn(CC2CCOCC2)nc1-c1ccc(F)cc1 [Compound 11] | – | > 10
48 | COc1ccc(-c2n[nH]cc2CN(C)CCN)c(OC)c1 [Compound 87] | 0.101 to 1 | > 10
49 | CC(C)N(CCN)Cc1c[nH]nc1-c1ccc(F)cc1 [Compound 75] | 0.101 to 1 | > 10
50 | Cc1ccc(-c2n[nH]cc2CN(C)CCN)c(Cl)c1 [Compound 90] | < 0.1 | 3.01 to 10
51 | CNCCN(C)Cc1c[nH]nc1-c1ccc(C(=O)c2ccccc2)cc1 [Compound 45] | < 0.1 | 3.01 to 10
52 | CN(CCN)Cc1c[nH]nc1-c1ccc(OC(F)(F)F)cc1 [Compound 93] | < 0.1 | 3.01 to 10
53 | CNCCN(C)Cc1c[nH]nc1-c1ccc(CC#N)cc1 [Compound 34] | – | > 10
54 | CC(C)Oc1ccc(-c2n[nH]cc2CN(C)CCN)cc1 [Compound 67] | – | 3.01 to 10
55 | Cc1ccc(-c2n[nH]cc2CN(C)CCN)c(C)c1 [Compound 88] | 0.101 to 1 | 3.01 to 10
56 | CNCCN(C)Cc1c[nH]nc1-c1ccc(F)c(F)c1 [Compound 51] | < 0.1 | 3.01 to 10
57 | CNCCN(C)Cc1c[nH]nc1-c1cc(F)ccc1F [Compound 50] | 0.101 to 1 | > 10
58 | CN(CCN)Cc1c[nH]nc1-c1cccc(C#N)c1 [Compound 70] | 0.101 to 1 | > 10
59 | CCCN(CCN)Cc1c[nH]nc1-c1ccc(F)cc1 [Compound 63] | 1.01 to 3 | > 10
60 | CNCCN(C)Cc1c[nH]nc1-c1cccc(N)c1 [Compound 32] | – | 1.01 to 3
61 | CNCCN(C)Cc1c[nH]nc1-c1cccc(OC(F)(F)F)c1 [Compound 39] | – | > 10
62 | CN(CCN)Cc1c[nH]nc1-c1ccc(OC(F)F)cc1 [Compound 94] | < 0.1 | 3.01 to 10
63 | CN(CCN)Cc1c[nH]nc1-c1ccc(N2CCNCC2)cc1 [Compound 82] | < 0.1 | 1.01 to 3
64 | CN(CCN)Cc1c[nH]nc1-c1ccc(C(F)(F)F)cc1 [Compound 92] | < 0.1 | 3.01 to 10
65 | CNCCN(C)Cc1c[nH]nc1-c1ccc(F)cc1 [Compound 2, N^1-((3-(4-fluorophenyl)-1H-pyrazol-4-yl)methyl)-N^1,N^2-dimethylethane-1,2-diamine] | < 0.1 | 3.01 to 10
66 | CNCCN(C)Cc1c[nH]nc1-c1ccccc1-c1ccccc1 [Compound 46] | 1.01 to 3 | > 10
67 | CN(CCN)Cc1cn[nH]c1-c1ccc(F)cc1 [Compound 1] | – | 1.01 to 3
